Experimental data: PMC11327196, “A phase 1 study to assess the absolute bioavailability, mass balance, pharmacokinetics, metabolism, and excretion of [^14C]-mobocertinib, an oral inhibitor of EGFR exon 20 insertion mutations, in healthy participants” (Investigational New Drugs, 2024)
“Also recorded” adds a separate entry of the source. Blank lines part the entries; values can stand above or below the compound they belong to.

Legend:
[1] = system: platinum-pretreated EGFRex20ins mutation positive locally advanced or metastatic NSCLC; parameters: method as in PMID 34647988; conditions: 114 patients, mobocertinib 160 mg orally qd; cited from earlier work
[2] = system: EGFRex20ins mutation positive locally advanced or metastatic NSCLC; parameters: method as in doi:10.1016/j.annonc.2023.10.586; conditions: mobocertinib versus chemotherapy, first-line; cited from earlier work
[3] = Period 1 absolute bioavailability study: plasma PK after single oral 160 mg mobocertinib capsules; type: in vivo, human
Experimental: (§1) This was a two-period, open-label, single-dose phase 1 study (NCT03811834) conducted at one clinical site (Celerion, Lincoln, Nebraska, USA) in healthy male participants. The primary objective of Period 1 was to determine the absolute bioavailability of mobocertinib following a single oral dose of 160 mg mobocertinib as capsules and a single intravenous (IV) microdose of 50 µg (~ 2 µCi) [^14C]-mobocertinib. The primary objectives of Period 2 were to (1) assess the cumulative excretion of total radioactivity in urine and feces (mass balance); (2) assess the metabolite profile of mobocertinib in plasma, urine, and feces; and (3) characterize the PK of mobocertinib, AP32960, and AP32914 in plasma, whole blood, and urine, and total radioactivity concentration equivalents in plasma and whole blood following a single oral dose of 160 mg (~ 100 µCi) [^14C]-mobocertinib as an oral solution. A sample size of 6 healthy males was selected without statistical considerations and deemed adequate to meet the study objectives. Furthermore, the sample size was limited based on clinical considerations for human ADME studies and to limit exposure to radioactivity.
(§2) On Day 1 of Period 1, following an overnight fast of at least 10 h, participants received a single 160 mg dose of non-radiolabeled mobocertinib as capsules. At 3.75 h post oral dosing (i.e., 15 min before the median oral tmax of ~ 4 h), participants received a nominal dose of 50 µg (~ 2 µCi) [^14C]-mobocertinib as a 15-minute IV infusion. However, due to nonspecific binding of [^14C]-mobocertinib to the dosing syringe and tubing, actual doses administered ranged from 36.8 to 38.7 µg (1.47 to 1.55 µCi). Participants were required to stay in the clinic from Day − 1 through at least the 96-hour blood draw (Day 5) or until a discharge criterion was met (i.e., ≥ 80% of the total administered radioactive dose was recovered in urine and fecal samples or excretion of radioactivity in urine and feces combined had declined to ≤ 1% of the total administered dose per day for ≥ 2 consecutive intervals), up to a maximum of 7 days postdose (Day 8). Blood samples for the measurement of plasma mobocertinib, AP32960, and AP32914 concentrations were collected predose and at 0.5, 1, 2, 3, 4, 5, 6, 8, 12, 24, 36, 48, 72, and 96 h after oral administration. Additional blood samples to determine [^14C]-total radioactivity, [^14C]-mobocertinib, [^14C]-AP32960, and [^14C]-AP32914 in plasma were collected at 3.75 h after oral dosing (i.e., predose for [^14C] assessments), at the end of the IV infusion, and at 10, 20, and 30 min, and 1, 2, 4, 8, 20, 32, 44, 68, and 92 h after the end of infusion. […] Urine and feces were collected before oral dosing (− 48–0 h); urine was collected over 0–3.75 h, 3.75–12 h and 12–24 h after oral dosing; feces were collected from 0 to 3.75 h and 3.75–24 h after oral dosing; both urine and feces were then collected over 24-hour intervals until a discharge criterion was met, or up to Day 8 (168 h postdose).
(§3) Plasma, whole blood, and urine samples were assayed for mobocertinib, AP32960, and AP32914 concentrations using liquid chromatography-tandem mass spectrometry (Q2 Solutions, Ithaca, New York, USA). The analytical range for each analyte was 0.250 to 500 ng/mL in whole blood and plasma, and 1.00 to 1000 ng/mL in urine. […] Urine and fecal samples were assayed for total radioactivity following the IV dose of [^14C]-mobocertinib in Period 1, and whole blood, plasma, urine, and fecal samples were assayed for total radioactivity following the oral dose of [^14C]-mobocertinib in Period 2 using liquid scintillation counting (LSC; Celerion, Lincoln, Nebraska, USA; LLOQs: Period 1 urine: 0.115–0.118 ng eq/g, feces: 0.720–0.759 ng eq/g; Period 2 whole blood: 87.3–112 ng eq/g, plasma: 116–132 ng eq/mL, urine: 37.8–46.8 ng eq/g, feces: 110–336 ng eq/g across participants). […]

[4] = parameters: method as in PMID 34145979; conditions: healthy participants, cited from earlier work
[5] = Safety assessments (adverse events) in healthy participants; type: in vivo, human
Experimental: Safety was evaluated based on the incidence and severity of AEs and changes from baseline in clinical laboratory results, vital signs, and ECG parameters. AEs were graded according to Common Terminology Criteria for Adverse Events version 5.0.

[6] = Period 1 absolute bioavailability study: plasma PK after IV microdose of [14C]-mobocertinib; type: in vivo, human
Experimental: as §1, §2, §3

[7] = Period 1, single oral 160 mg mobocertinib capsules, geometric mean (geometric CV%)
[8] = Period 1, IV infusion 50 µg [14C]-mobocertinib, geometric mean (geometric CV%)
[9] = Period 1, IV infusion 50 µg [14C]-mobocertinib, normalized to a 160 mg dose, geometric mean (geometric CV%)

Compound: C=CC(=O)Nc1cc(Nc2ncc(C(=O)OC(C)C)c(-c3cn(C)c4ccccc34)n2)c(OC)cc1N(C)CCN(C)C [Mobocertinib]
- median duration of response [1]: 17.5 months
- median overall survival [1]: 24.0 months
- median progression-free survival [1]: 7.3 months
- objective response rate per independent-review committee [1]: 28%
- primary endpoint of phase 3 study [2]: not met
- CL/F [3, 7]: 152 (64.9) L/h
- Cmax [3, 7]: 56.7 (52.2) ng/mL
- tmax ([3]; Period 1, single oral 160 mg mobocertinib capsules, median (range)): 5.0 (4.0–6.0) h
- bioavailability ([3]; male, human, Period 1, oral 160 mg capsules AUC∞ vs dose-normalized IV microdose AUC∞, 90% CI 22.4–60.2%, read-out: geometric mean absolute oral bioavailability): 36.7%
- AUC(0-inf) ([3]; male, human, Period 1, single oral 160 mg mobocertinib capsules, geometric mean (geometric CV%)): 1050 ng·h/mL
- Vd/F ([3]; male, human, Period 1, single oral 160 mg mobocertinib capsules, geometric mean (geometric CV%), read-out: Vz/F): 5030 L
- half-life ([3]; male, human, Period 1, single oral 160 mg mobocertinib capsules, geometric mean (geometric CV%), read-out: t1/2z (converted)): 22.9 h
- decrease of combined molar AUC of mobocertinib and its active metabolites ([4]; coadministration of strong CYP3A inducer rifampin): 95%
- increase of combined molar AUC of mobocertinib and its active metabolites ([4]; coadministration of strong CYP3A inhibitor itraconazole): 527%
- deaths or serious AEs ([5]; 7 healthy male participants, Periods 1 and 2): no deaths or serious AEs
- severity of AEs ([5]; CTCAE version 5.0, both treatment periods): grade 1 (mild)
- participants who experienced at least 1 AE ([5]; Period 1): 6
- participants who experienced at least 1 AE ([5]; Period 2): 4
- overall safety and tolerability ([5]; both treatment periods): generally safe and well-tolerated; also recorded: no new safety signals observed
- incidence of most common AEs (constipation, diarrhea, and nausea, each) ([5]; each in 2 of 7 participants): 29%
- discontinuation because of AEs ([5]; eructation, nausea, salivary hypersecretion, vomiting on Day 1 of Period 1): One participant discontinued the study early because of multiple AEs
- participants who experienced at least 1 AE ([5]; of 7 participants, whole study): 7

- tmax ([6]; Period 1, 15-min IV infusion 50 µg (~2 µCi) [14C]-mobocertinib, median (range)): 0.26 (0.26–1.25) h
- CL/F (after IV administration, values represent CL) [6, 8]: 55.9 (30.0) L/h
- Vz/F (after IV administration, values represent Vz) [6, 8]: 1791 (45.3) L
- t1/2z [6, 8]: 22.2 (41.3) h
- AUC∞ [6, 9]: 2864 (30.0) ng*h/mL
- Cmax [6, 9]: 624.9 (43.6) ng/mL
Compound: [^14C]-mobocertinib
